Reference: patent publication US10464901B2, “Composition including benzene diamine derivative for preventing or treating degenerative brain diseases” (UNIST(ULSAN NATIONAL INSTITUTE OF SCIENCE AND TECHNOLOGY), priority 2017, dated 2019)

What was measured:
[1] = test system: Cu(II)-Aβ; experiment: Aβ aggregation inhibition, gel electrophoresis and Western blotting with anti-Aβ antibody (6E10); format: biochemical
Description: It was examined whether the benzene diamine derivatives of the present disclosure have inhibitory effects on Aβ aggregation. Aβ has two isoforms, and therefore, effects on Aβ40 and Aβ42 were examined, respectively. When metals are involved in protein folding, the probability of abnormal folding is high. In this case, the probability of Aβ aggregate formation is further increased.
In order to perform molecular analysis of Aβ aggregation-inhibitory effects of the benzene diamine derivatives of the present disclosure, gel electrophoresis and Western blotting were performed by using anti-Aβ antibody (6E10). As a control group, compound 1
In detail, each sample (10 μl) was separated on a 10-20% Tris-tricine gel (Invitrogen, Grand Island, N.Y., USA). After separation, the proteins were transferred onto a nitrocellulose membrane and blocked with bovine serum albumin (BSA, 3% w/v, Sigma-Aldrich, St Louis, Mo., USA) in Tris-buffered saline (TBS) containing 0.1% Tween-20 (TBS-T) at room temperature for 2 hours or at 4° C. overnight. The membrane was incubated in a 2% BSA (w/v in TBS-T) solution, together with anti-Aβ antibody (6E10, 1:2,000, Covance, Princeton, N.J., USA), at room temperature for 4 hours or at 4° C. overnight. The membrane was washed with TBS-T (3×, 10 min), and a secondary mouse antibody (1:5,000 in 2% BSA w/v in TBS-T; Cayman Chemical Company, Ann Arbor, Mich., USA) was added thereto, followed by incubation at room temperature for 1 hour. Thermo Scientific SuperSignal West Pico Chemiluminescent Substrate (Thermo Scientific, Rockford, Ill., USA), Biosesang ECL Plus kit (Biosesang, Gyeonggi-do, Republic of Korea), or homemade ECL kit53 were used for visualization, and ChemiDoc MP Imaging System (Bio-Rad, Hercules, Calif., USA) was used for detection.

[2] = test system: APP/PS/Tau dementia mouse model; experiment: Morris water maze test, memory capacity of dementia mouse model; format: in vivo; settings: oral 100 μg/kg twice a week for 2 months
Experimental: In order to investigate enhancement of spatial cognition and memory in dementia mouse models by the benzene diamine derivatives of the present disclosure, a Morris water maze (Harvard Apparatus, USA) test was performed.
In detail, a water maze composed of a stainless steel pool with a diameter of 150 cm×a height of 60 cm and an escape platform (10 cm in diameter, 30 cm in height) was filled with water at 22±2° C., and the height was 2 cm above the platform such that when a mouse sat on the escape platform, the body was allowed to come out of the water. […] Escape latency was measured as the time taken for the experimental animal to go to the escape platform when the experimental animal went to the escape platform and stayed thereon for more than 20 seconds. This test was performed three times a day, and a mean value was determined as mean escape latency. The escape latency was recorded on the computer program (Smart Video Tracking System V3.0, PanLab SL, Barcelona, Spain) by installing a camera on the ceiling above the water tank. The experiment was performed three times a day for 6 days, and at this time, the possibility of accidentally visiting the escape platform was minimized by sequentially changing the positions of the experimental animals in the water tank. In the experiment, a normal mouse, a control dementia mouse administered with a vehicle (PBS) and an experimental dementia mouse administered with 100 μg/kg of N^1-(pyridin-2-ylmethypenzene-1,4-diamine (Compound 2) twice a week for 2 months were used after completing administration, as in Experimental Example 1.

[3] = molecular target: T1, monomeric Aβ42 (Homo sapiens, UniProt P05067); experiment: Brain tissue immunohistofluorescence, monomeric Aβ (BAM-10) and plaques (MX04); format: in vivo, mouse; settings: oral 100 μg/kg twice a week for 2 months, confocal, FIG. 7
T1 construct: from tissue; host or cells: brain of dementia mouse models
Experimental: Overexpression of monomeric Aβ may increase formation of oligomeric Aβ, Aβ aggregates, and amyloid plaques to cause neuronal cytotoxicity. Therefore, anatomical analysis of the brain tissue was performed to examine whether the benzene diamine derivatives of the present disclosure inhibit monomeric Aβ formation in dementia mouse models.
As in Experimental Example 1, a control group was orally administered with a vehicle for 2 months, and an experimental group was orally administered with 100 μg/kg/0.1 ml of N^1-(pyridin-2-ylmethyl)benzene-1,4-diamine (Compound 2) twice a week for 2 months. The brain was taken from a non-treated dementia mouse model (4 months), and the brains of the control group and the experimental group were also taken after the administration. Each mouse was anesthetized with ketamine, and then the skull was incised. The brain was then embedded in paraffin and subjected to immunohistofluorescence staining. The brain tissues were fixed in formalin and sectioned at a thickness of 50 μm by using a vibrotome, and each tissue was placed on a glass slice. For comparison of monomeric Aβ, BAM-10 monoclonal anti-Aβ primary antibody labeled with QD525 probe (green fluorescence) was used to examine changes in the quantity of monomeric Aβ42. […]

[4] = test system: Aβ aggregates; experiment: Brain tissue staining of Aβ aggregates with Thioflavin T; format: in vivo, mouse; settings: oral 100 μg/kg twice a week for 2 months, confocal, FIG. 9
Experimental: Like oligomeric Aβ, Aβ aggregates in the brain tissue may cause neuronal cell death by neuronal cytotoxicity, which may cause dementia. Therefore, anatomical analysis of the brain tissue was performed to examine whether the benzene diamine derivatives of the present disclosure inhibit neuronal cytotoxicity by Aβ aggregates in dementia mouse models.
In detail, as in Experimental Example 7-1, the dementia mouse models were prepared and their brain tissues were stained. Aβ aggregates in the brain tissue were labeled with Thioflavin T (ThT, Sigma-Aldrich) (green fluorescence), plaques were stained with a fluorescent staining reagent MX04 (blue), and incubated at 4° C. for 12 hours. Thereafter, the tissues were observed under a confocal microscope at 0.5×10.

[5] = PAMPA-BBB analysis; format: in vitro ADME
Experimental: […] PAMPA-BBB analysis was performed by using a PAMPA Explorer kit (pION, Inc. Billerica, Mass., USA) according to the manufacture's protocol with slight modifications. […] The prepared solution was put in each well of a donor plate (200 μl, repeated 12 times). A polyvinylidene fluoride (PVDF, […]) filter membrane on an acceptor plate was coated with BBB-1 lipid formulation (5 μl, pION). The acceptor plate was placed on top of the donor plate to generate a “sandwich”. Brain sink buffer (BSB, 200 μl, pION) was added to each well of the acceptor plate. The sandwich-shaped plate was incubated for 4 hours at room temperature without stirring. UV-vis spectra of the solutions in the reference, acceptor, and donor plates were measured using a microplate reader. A PAMPA Explorer software [v. 3.8 (pION)] was used to calculate the −log Pe values for compounds. CNS±designations were assigned by comparison with compounds that were identified in previous reports.

T1 sequence (P05067 672-713 limits assumed): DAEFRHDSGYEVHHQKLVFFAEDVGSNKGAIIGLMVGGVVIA

Structure (SMILES): Nc1ccc(NCc2ccccn2)cc1 [Compound 2, N^1-(pyridin-2-ylmethyl)benzene-1,4-diamine]
- Cu(II)-Aβ (inhibitory effect on Aβ aggregation) ([1]; Table 1 summary of Example 2, symbols not defined): ◯
- Cu(II)-Aβ-inhibitory effect ([1]; two kinds of Aβ, FIG. 1): very excellent Cu(II)-Aβ-inhibitory effect on two kinds of Aβ
- difference in mean escape latency vs control group at 4 days ([2]; AD mice): 16 s
- difference in mean escape latency vs dementia group at 5 days ([2]; AD mice): 19 s
- mean escape latency at 4 days ([2]; AD mice): 26 ± 1 s
- mean escape latency at 5 days ([2]; AD mice): 24 ± 1 s
- mean escape latency at 3 days (worded) ([2]; vs dementia control group, FIG. 5): significantly short mean escape latency
- monomeric Aβ formation in cortex and hippocampus [3]: monomeric Aβ formation was hardly observed
- plaques (MX04) in brain [3]: plaques were hardly observed
- Aβ aggregates (ThT) in brain [4]: Aβ aggregates were hardly observed
- PAMPA-BBB permeability class ([5]; 50 μM, incubation 4 hrs, U.V): High
- Papp at 4 h, 50 μM ([5]; PAMPA, pH 7.4, 50 μM, incubation 4 hrs, U.V, read-out: Pe): 12.5 ×10⁻⁶ cm/s
- CNS± designation ([5]; assigned by comparison with compounds identified in previous reports): (CNS+)
